Results: paper PMC4165891, “A Cell-Based High-Throughput Screen for Novel Chemical Inducers of Fetal Hemoglobin for Treatment of Hemoglobinopathies” (PLoS ONE, 2014)

Columns and labels:
[1] = tested on: γ-globin promoter-firefly luciferase; test: γ-globin promoter-firefly luciferase induction in CID-dependent dual luc β-YAC BMCs (HTS and dose-response reconfirmation); format: cell-based, mouse; conditions: for fold induction of firefly luciferase by positive control: 2 mM, 24 hours, over DMSO treated controls, primary HTS plates; for responsiveness of dual luc β-YAC BMCs to known γ-globin inducers: data not shown
Method: For HTS experiments, the dual luc β-YAC BMCs were seeded into 384-well plates (Greiner Bio-One, Monroe, NC) at a density of 10,000 cells/30 µl/well by Wellmate bulk dispenser (ThermoScientific Inc., Waltham, MA) in complete media containing the CID, CL-COB-II-293 (synthesized by the University of Kansas COBRE CCET Core C Synthesis Lab, commonly called AP20187). The CID-dependent dual luc β-YAC BMCs were responsive to known γ-globin inducers including valproic acid, sodium butyrate, valeric acid and hydroxyurea (data not shown). Sodium butyrate (2 mM) was selected as the positive control for screening, as a consistent 5–6 fold increase in firefly luciferase activity was obtained in four independent experiments with four different passage numbers. Since both the cell viability and luciferase induction was unaffected at DMSO concentrations below 0.5%, the compound libraries were screened at 10 µM concentration in 0.35% DMSO. Compounds were transferred acoustically using a Labcyte Echo 550 dispenser (Labcyte Inc., Sunnyvale, CA). Based on previous optimizations, 10,000 cells/well in IMDM containing CL-COB-II-293 (100 nM) were added to the wells of 384-well assay plates. The negative (n = 16, DMSO) and positive (n = 16, sodium butyrate, 2 mM) controls were added to the first two columns of each plate to assure uniformity across plates and screening batches. The cells were exposed to compounds for 24 hours at 37°C, 5% CO2 in a 95% humidified incubator. After 24 hours incubation, Steady Glo luciferase detection reagent (Promega, Madison, WI) was used for cell lysis and generation of a luminescent signal, proportional to γ-globin promoter driven firefly luciferase reporter expression. The luminescence intensities were read 30 minutes later on a Tecan Safire2 microplate reader (Tecan, Männedorf, Switzerland). The luminescence values were used for calculating fold-induction of luciferase over DMSO treated controls. The controls were used to calculate a Z′ factor value for each plate, a measure of screening assay quality.
The active compounds from the primary screen were cherry-picked from mother plates and retested for firefly luciferase induction in an eight concentration dose-response assay (two fold dilution starting at 30 µM). The fold-induction values from dose-response curves were used for preliminary scaffold analysis and clustering using the Tripos Selector program and analyzed using the Jarvis Patrick routine, using default parameters [The Tripos Associates (Cetara), St. Louis, MO]. From each preliminary cluster, the largest conserved substructure present in at least half of the cluster members was identified.
Some of the primary screen active compounds were repurchased and tested for activity in cell-based assays using the primary screening reporter cells in a ten concentration dose-response. Both firefly luciferase induction (γ-globin promoter activation using the One-Glo luciferase detection system; Promega, Madison, WI), and Renilla luciferase induction (β-globin induction the using Renilla-Glo Luciferase detection system; Promega, Madison, WI), were measured for specificity of compound activity. The cytotoxicity of the compounds was measured after 24 hours in the same cells using Cell-Titer Glo reagent (Promega, Madison, WI). The compounds were also tested in a biochemical screen for any inhibition to purified firefly luciferase enzyme (15 nM).

[2] = tested on: human γ-globin gene expression; test: qRT-PCR of γ-globin mRNA in CID-dependent wild-type β-YAC BMCs; format: cell-based, mouse; conditions: 48 hours; NaB 2 mM; #7 50 µM; #42 15 µM; #87 100 µM; #125 30 µM; #157 100 µM; #208 25 µM
From the text: (§1) Human erythroid progenitors were generated in vitro from adult CD34^+ stem cells (STEMCELL Technologies, Inc., Vancouver, Canada) using a 2-stage culture system that achieves terminal erythroid differentiation. Standard, but variant, methods for quantitative reverse transcription-PCR (qRT-PCR) and flow-activated cell sorting (FACS) were employed for the two cell types as detailed in File S1. ELISA was used to measure HbF in CID-dependent wild-type β-YAC BMCs as described in the supplement.
Quantitative reverse transcription-PCR (qRT-PCR). In each experiment, treated and non-treated samples were analyzed in duplicate, 48 hours post-treatment, using SYBR Green dye in a CFX96 instrument (Bio-Rad, Hercules, CA). Expression of γ- and β-globin was calculated using relative quantification, as previously described, [7], using samples from β-YAC transgenic mice as controls. PCR primer sequences utilized for expression studies were: Hu-γ1, 5’-[…]-3’; Hu-γ2, 5’-[…]-3’; β-globin FWD, 5’-[…]-3’; β-globin REV, 5’-[…]-3’; Mo-Gapdh FWD, 5’-[…]-3’; Mo-Gapdh REV, 5’-[…]-3’; Mo-α-globin FWD, 5’-[…]-3’; Mo-α-globin REV, 5’-[…]-3’. Murine Gapdh and α-globin gene expression were used as internal controls for the human β-like globin gene expression. Mean and standard error of the mean were calculated. The Student’s t-test was used to determine statistical significance at P < 0.05 and P < 0.01.

[3] = tested on: γ-globin (HbF)-expressing F cells; test: FACS analysis of HbF (F cells) in CID-dependent wild-type β-YAC BMCs; format: cell-based, mouse; conditions: 48 hours; NaB 2 mM; #7 50 µM; #42 15 µM; #87 100 µM; #125 30 µM; #157 100 µM; #208 25 µM; untreated 0.7%
From the text: as §1
Flow-activated cell sorting (FACS). Detection of HbF in CID-dependent wild-type β-YAC BMCs was performed by flow cytometric analysis. Briefly, 3 x 10^6 cells were cultured for 48 hours with or without treatment. Cells were washed in PBS and fixed in 1 ml 4% fresh paraformaldehyde (Sigma Aldrich, Saint Louis, MO). The cells were centrifuged, the supernatant discarded, and the pellets were resuspended in 1 ml ice cold acetone:methanol (4:1) for 1 minute. Cells were washed twice in ice-cold PBS/0.1% BSA and resuspended in 100 μl PBS/0.1% BSA/0.01% Tween 20 (PBT). One μg sheep anti-human HbF FITC-conjugated antibody (A80-136F, Bethyl Laboratories, Montgomery, TX) in 100 μl PBT was added to the cell suspension and incubated for 40 minutes at room temperature. […] Cells were analyzed using a BD LSRII Flow Cytometer (BD Biosciences, San Jose, CA) with a 530/30 nm (FITC/GFP) emission filter . […]

[4] = tested on: γ-globin to β-globin (γ/β) ratio; test: qRT-PCR γ-globin/β-globin mRNA ratio in human primary erythroid progenitors; format: cell-based; conditions: added day 8 for 48 hours; NaB 2 mM; #7 50 µM; #42 15 µM; #87 100 µM; #208 25 µM (Figure 6 legend)
From the text: as §1
Human primary erythroid cell culture. Human erythroid progenitors were generated in vitro from adult CD34^+ stem cells (STEMCELL Technologies, Inc., Vancouver, Canada) using a 2-stage culture system that achieves terminal erythroid differentiation. […] Cell viability was monitored by trypan blue (0.4%) exclusion. […]
Quantitative reverse transcription-PCR (qRT-PCR). The mRNA levels of γ-globin, β-globin, and glyceraldehyde-3-phosphate dehydrogenase (GAPDH) were measured as previously published, [10]. […] The γ-globin, β-globin, and GAPDH mRNA levels were quantitated by Sybergreen qPCR using an iCycler iQ instrument (BioRad, Hercules, CA); standard curves were generated using a Topo7-based plasmid carrying the γ-globin, β-globin, or GAPDH cDNAs (Topo7-γ-globin, Topo7-β-globin, or Topo7-GAPDH, respectively).

[5] = tested on: HbF-positive cells; test: FACS analysis of HbF-positive cells in human primary erythroid progenitors; format: cell-based; conditions: 48 hours
From the text: as §1
Human primary erythroid cell culture. Human erythroid progenitors were generated in vitro from adult CD34^+ stem cells (STEMCELL Technologies, Inc., Vancouver, Canada) using a 2-stage culture system that achieves terminal erythroid differentiation. Briefly, CD34^+ stem cells (500,000) were grown in First medium consisting of IMDM containing human AB serum, Interleukin-3 (IL-3,10 ng/ml), stem cell factor (SCF, 10 ng/ml) and erythropoietin (EPO, 2 IU/ml). On day 7 the erythroblasts were placed in Second medium consisting of 2 IU/mL erythropoietin for the duration of culture. […] Cell viability was monitored by trypan blue (0.4%) exclusion. […]
Flow-activated cell sorting (FACS). […] The labeled cells were analyzed using a Becton-Dickson LSR-II flow cytometer (BD Biosciences, San Jose, CA). […]

| responsiveness of dual luc β-YAC BMCs to known γ-globin inducers [1] | Structure (SMILES) | fold induction of firefly luciferase by positive control [1] | fold induction of firefly luciferase by positive control ([1]; listed as sodium butyrate) [fold] | γ-globin expression fold induction (qPCR) [2] [fold] | % F cells (FACS, gate P3) [3] [%] | γ-globin to β-globin (γ/β) mRNA ratio fold increase compared to DMSO [4] [fold] | fold increase in % HbF-positive cells [5] [fold] |
| --- | --- | --- | --- | --- | --- | --- | --- |
| responsive | NC(=O)NO [hydroxyurea] | – | – | – | – | – | – |
| responsive | CCCC(CCC)C(=O)O [valproic acid] | – | – | – | – | – | – |
| responsive | CCCCC(=O)O [valeric acid] | – | – | – | – | – | – |

| Structure (SMILES) | responsiveness of dual luc β-YAC BMCs to known γ-globin inducers [1] | fold induction of firefly luciferase by positive control [1] | fold induction of firefly luciferase by positive control ([1]; listed as sodium butyrate) [fold] | γ-globin expression fold induction (qPCR) [2] [fold] | % F cells (FACS, gate P3) [3] [%] | γ-globin to β-globin (γ/β) mRNA ratio fold increase compared to DMSO [4] [fold] | fold increase in % HbF-positive cells [5] [fold] |
| --- | --- | --- | --- | --- | --- | --- | --- |
| CCCC(=O)[O-].[Na+] [Sodium butyrate] | responsive | 5–6 fold | 6.3±0.7 | 9.9 | 15.9 | 1.8 | 7 |
